According to patent US20200010903A1, “AAV-Mediated Direct In vivo CRISPR Screen in Glioblastoma” (YALE UNIVERSITY, priority 2017, published 2020):

Tests used:
Type in all cases: cell-based, mouse
[1] = tested on: Rb1 GBM cells; test: RNA-seq differential expression, TMZ vs DMSO; details: 1 mM TMZ vs DMSO, 48 h
Procedure: (§1) Temozolomide (TMZ) treatment, Cell viability assay, and RNAseq: After 7-9 days' culture under puromycin selection, lentiviruses-infected Nf1 and Rb1 knockout tumor cells were plated in triplicates into 96-well plate at a density of 2.5×10^3 cells per well, and ˜5×10^6 cells were collected at the same time and used for cutting efficiency analysis. One day after plating, either TMZ or DMSO was added at a concentration of 10 μM, 100 μM, 500 μM, 1 mM, and 2 mM. After 3 days of drug/vehicle treatment, cell viability was measured using CellTiter Glo (Promega) according to the manufactures' protocol. Briefly, the CellTiter Glo was equilibrated at room temperature for 1 h before use. The media of 96-well plates was aspirated, and then 50 μL fresh DMEM+10% FBS and 50 μL CellTiter Glo was added. The luminescent signals were readout using EnVision plate reader (PerkinElmer). For RNAseq samples preparation, cell lines harboring specific gene knockouts were cultured for 7-9 days under the selection pressure of puromycin, and then plated into 6-well plates at a density of 2×10^5 cells per well in triplicates. 24 h after plating, 1 mM TMZ or DMSO in fresh DEME+10% FBS was added and cultured for another 48 h. Then, cellular RNA of control or treated cells were extracted by adding 350 μL TRIzol Reagent (Invitrogen) directly into 6-well plates to lyse the cells, followed by gently shaking the plates and incubation for 5-10 min to complete and lysis and homogenization. Then, 70 μL chloroform was added, vigorously mixed, and centrifuged at 16,000 g for 15 min. Transfer the RNA containing aqueous phase to a new tube and further purified using RNeasy mini kit (Qiagen). After eluting RNA from column using Nuclease free water, the concentrations of sample RNA were normalized into 150-300 ng/uL for RNAseq.
(§2) Transcriptome profiling of different driver combinations in the presence and absence of chemotherapy: Mixtures of five sgRNAs targeting each gene were cloned as sgRNA minipool into the same astrocyte-specific AAV-CRISPR vector. After packaging, AAV minipools were stereotaxically injected into the lateral ventricle of LSL-Cas9 mice. Cell lines were derived from mouse GBMs by single-cell isolation, plating and culture in DMEM media. Additional driver mutations were introduced by lentiCRISPR where applicable. GBM cells with different drivers were treated with DMSO or TMZ for 48 h, and harvested for mRNA-seq for transcriptome profiling. Briefly, total RNA was extracted from cancer cells derived from AAV-CRISPR minipools induced GBM treated with DMSO or TMZ, using commercially available kits (Qiagen/Thermofisher). PolyA-mRNA library was constructed using Illumina TruSeq mRNA library prep kit, and sequenced on Illumina Hiseq 2500 and/or Hiseq 4000 platform.
(§3) RNA-seq differential expression analysis: Strand-specific single-end RNA-seq read files were analyzed to obtain transcript level counts using Kallisto, with the settings --rf-stranded -b 100. The counts were subsequently passed to the tximport R package to collapse to gene level counts. Pairwise differential expression analysis between groups was then performed using edgeR with default settings.

[2] = tested on: Rb1; Pten GBM cells; test: RNA-seq differential expression, TMZ vs DMSO; details: 1 mM TMZ vs DMSO, 48 h
Procedure: as §1, §2, §3

[3] = tested on: Rb1; Zc3h13 GBM cells; test: RNA-seq differential expression, TMZ vs DMSO; details: 1 mM TMZ vs DMSO, 48 h
Procedure: as §1, §2, §3

[4] = tested on: Rb1, Rb1; Pten, and Rb1; Zc3h13 GBM cells; test: RNA-seq TMZ vs DMSO, overlap of differentially expressed genes between genotypes
Procedure: as §1
as §2, with “Briefly, total RNA was extracted from cancer cells derived from AAV-CRISPR minipools induced GBM treated with DMSO or TMZ, using commercially available kits (Qiagen/Thermofisher). PolyA-mRNA library was constructed using Illumina TruSeq mRNA library prep kit, and sequenced on Illumina Hiseq 2500 and/or Hiseq 4000 platform.” left out
RNA-seq differential expression analysis: Strand-specific single-end RNA-seq read files were analyzed to obtain transcript level counts using Kallisto, with the settings --rf-stranded -b 100. […]

[5] = shared by Rb1, Rb1, Pten, Rb1, Zc3h13

SMILES: Cn1nnc2c(C(N)=O)ncn2c1=O [TMZ, temozolomide]
- genes significantly higher in DMSO-treated cells (TMZ-reduced genes) [1]: 332 genes
- genes significantly higher in TMZ-treated cells (TMZ-induced genes) ([1]; adjusted p<0.05, log fold change ≥1 or ≤−1): 352 genes
- genes significantly higher in DMSO-treated cells [2]: 313 genes
- genes significantly higher in TMZ-treated cells [2]: 345 genes
- genes significantly higher in DMSO-treated cells [3]: 166 genes
- genes significantly higher in TMZ-treated cells [3]: 703 genes
- genes significantly reduced upon TMZ treatment in Rb1; Zc3h13 and Rb1; Pten cells, but not in Rb1 cells [4]: 37 genes
- genes upregulated upon TMZ treatment in Rb1; Zc3h13 and Rb1; Pten cells, but not in Rb1 cells [4]: 60 genes
- genes downregulated among all 3 genotypes upon TMZ treatment [4, 5]: 69 genes
- genes upregulated in all 3 groups upon TMZ treatment [4, 5]: 42 genes
